Assay results reported in US9561228B2 (Celgene Avilomics Research, Inc., priority 2013, dated 2017).

Target: T1, MEK1 activated ERK1 (Homo sapiens, UniProt P27361)
T1 construct: purchased Millipore (Billerica, Mass.) 14-439-K
Assay: Omnia continuous-read kinase assay for potency against MEK1 activated ERK1
Assay type: biochemical
Conditions: MEK1 activated ERK1, ATP at KM; read-out: ERK1 Omnia WT ATP KM IC50
Source text: Omnia Assay Protocol for Potency Assessment Against MEK1 Activated ERK1:
The protocol below describes continuous-read kinase assays to measure potency of compounds against activated ERK1 enzyme. The mechanics of the assay platform are best described by the vendor (Invitrogen, Carlsbad, Calif.) on their website at the following URL: invitrogen.com/site/us/en/home.html.
Briefly, a 1.25× stock of ERK1 enzyme (14-439-K) from Millipore (Billerica, Mass.), 5×ATP (AS001A) and ST17-Sox conjugated peptide substrate (KNZ1171C) were prepared in 1× kinase reaction buffer consisting of 20 mM Tris, pH 7.5, 5 mM MgCl2, 1 mM EGTA, 5 mM β-glycerophosphate, 5% glycerol (10× stock, KB002A) and 0.2 mM DTT. 10 μL of ATP/ST17-sox peptide substrate mix was combined with 0.5 μL volume of 100% DMSO and serially diluted compounds were prepared in 100% DMSO in a Corning (#3574) 384-well, white, non-binding surface microtiter plate (Corning, N.Y.). Kinase reactions were started with the addition of 40 μL of ERK1 solution and monitored every 71 seconds for 30-240 minutes at λex360/λem485 in a Synergy plate reader from BioTek (Winooski, Vt.). At the conclusion of each assay, progress curves from each well were examined for linear reaction kinetics and fit statistics (R^2, 95% confidence interval, absolute sum of squares). Initial velocity (0 minutes to ˜30+ minutes) from each reaction was determined from the slope of a plot of relative fluorescence units vs time (minutes or seconds) and then plotted against inhibitor concentration to estimate ^AppIC50 from log [Inhibitor] vs Response, Variable Slope model in GraphPad Prism from GraphPad Software (San Diego, Calif.).
[Reagent] used in optimized protocol:
[ERK1]=4 nM, [ATP]=50 μM, [ST17-Sox]=10 μM (ATP ^appKM 48 μM)
The results of this assay show the degree of inhibition of ERK activity, which is a direct measurement of inhibition of ERK activity. Results from this assay are reported in Table A under the column “ERK1 Omnia WT ATP KM IC50 (nM).”

T1 sequence (P27361 whole entry): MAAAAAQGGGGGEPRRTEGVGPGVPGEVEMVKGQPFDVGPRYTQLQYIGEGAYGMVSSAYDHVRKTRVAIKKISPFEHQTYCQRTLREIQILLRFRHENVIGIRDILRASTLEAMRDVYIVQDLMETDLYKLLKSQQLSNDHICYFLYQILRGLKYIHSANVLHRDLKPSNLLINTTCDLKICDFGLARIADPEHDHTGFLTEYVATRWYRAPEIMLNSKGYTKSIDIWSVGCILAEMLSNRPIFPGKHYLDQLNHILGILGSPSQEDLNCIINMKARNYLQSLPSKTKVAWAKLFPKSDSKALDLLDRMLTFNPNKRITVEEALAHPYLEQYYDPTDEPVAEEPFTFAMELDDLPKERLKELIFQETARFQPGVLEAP

IC50 [nM] | Compound
101 to 500 | C=CC(=O)Nc1ccccc1Nc1nc(N[C@H]2CC[C@H](C(N)=O)CC2)ncc1Cl [Compound I-129, trans-4-((4-((2-acrylamidophenyl)amino)-5-chloropyrimidin-2-yl)amino)-cyclohexanecarboxamide]
101 to 500 | C=CC(=O)Nc1ccccc1Nc1nc(Nc2ccc(N3CCN(C(=O)CCCC(=O)NCCCOCCOCCOCCCNC(=O)CCCC[C@@H]4SC[C@@H]5NC(=O)N[C@@H]54)CC3)cc2OC(F)F)ncc1Cl [Compound I-306, 5-(4-(4-((4-((2-acrylamidophenyl)amino)-5-chloropyrimidin-2-yl)amino)-3-(difluoromethoxy)phenyl)piperazin-1-yl)-5-oxo-N-(15-oxo-19-((3aS,4S,6aR)-2-oxohexahydro-1H-thieno[3,4-d]imidazol-4-yl)-4,7,10-trioxa-14-azanonadecyl)pentanamide]
501 to 999 | C=CC(=O)Nc1ccccc1Nc1nc(Nc2ccc(N(CCCNC(=O)OC(C)(C)C)C(C)=O)cc2OC)ncc1Cl [Compound I-173]
> 1000 | C=CC(=O)N[C@@H]1CCCC[C@H]1Oc1nc(Nc2cc(C(N)=O)ccc2C)ncc1Cl (racemic) [Compound I-270, Rac-trans-3-((4-((2-acrylamidocyclohexyl)oxy)-5-chloropyrimidin-2-yl)amino)-4-methylbenzamide]
501 to 999 | C=CC(=O)Nc1ccccc1Nc1nc(Nc2ccc(N(CC)C(C)=O)cc2C(F)(F)F)ncc1Cl [Compound I-320]
101 to 500 | C=CC(=O)Nc1ccccc1Nc1nc(N[C@H]2CCCN(C(=O)[C@H](O)CO)C2)ncc1C(F)(F)F [Compound I-51, N-(2-((2-(((S)-1-((R)-2,3-Dihydroxypropanoyl)piperidin-3-yl)amino)-5-(trifluoromethyl)pyrimidin-4-yl)amino)phenyl)acrylamide]
501 to 999 | C=CC(=O)Nc1cc(OC)ccc1Nc1nc(Nc2ccc(N3CCC[C@@H]3CO)cc2C#N)ncc1Cl [Compound I-181, (R)—N-(2-((5-chloro-2-((2-cyano-4-(2-(hydroxymethyl)pyrrolidin-1-yl)phenyl)amino)pyrimidin-4-yl)amino)-5-methoxyphenyl)acrylamide]
101 to 500 | C=CC(=O)Nc1ccccc1Nc1nc(N[C@H]2CC[C@H](C(N)=O)CC2)ncc1C(F)(F)F [Compound I-16, 4-((4-((2-acrylamidophenyl)amino)-5-(trifluoromethyl)pyrimidin-2-yl)amino)-trans-cyclohexanecarboxamide]
501 to 999 | C=CC(=O)Nc1ccccc1Nc1nc(Nc2cc(C(=O)O)ccc2C)ncc1C(F)(F)F [Compound I-78, 3-((4-((2-Acrylamidophenyl)amino)-5-(trifluoromethyl)pyrimidin-2-yl)amino)-4-methylbenzoic acid]
501 to 999 | C=CC(=O)Nc1ccccc1Nc1nc(N[C@H]2CCCN(C(=O)C(C)=O)C2)ncc1C(F)(F)F [Compound I-49, (S)—N-(2-((2-((1-(2-Oxopropanoyl)piperidin-3-yl)amino)-5-(trifluoromethyl)pyrimidin-4-yl)amino)phenyl)acrylamide]
> 1000 | C=CC(=O)N[C@@H]1CCCC[C@H]1Oc1nc(Nc2cc(C(=O)NOC)ccc2C)ncc1C(N)=O (racemic) [Compound I-269, Rac-trans-4-((2-acrylamidocyclohexyl)oxy)-2-((5-(methoxycarbamoyl)-2-methylphenyl)amino)pyrimidine-5-carboxamide]
501 to 999 | C=CC(=O)Nc1ccccc1Nc1nc(Nc2ccc(N(CCCNC(=O)OC(C)(C)C)C(C)=O)cc2C(F)(F)F)ncc1Cl [Compound I-169, tert-butyl(3-(N-(4-((4-((2-acrylamidophenyl)amino)-5-chloropyrimidin-2-yl)amino)-3-(trifluoromethyl)phenyl)acetamido)propyl)carbamate]
> 1000 | C=CC(=O)N[C@@H]1CCCC[C@H]1Nc1nc(Nc2cc(C(=O)NOCCO)ccc2C)ncc1C(N)=O (racemic) [Compound I-257, Rac-trans-4-((2-acrylamidocyclohexyl)amino)-2-((5-((2-hydroxyethoxy)carbamoyl)-2-methylphenyl)amino)pyrimidine-5-carboxamide]
101 to 500 | C=CC(=O)Nc1ccccc1Nc1nc(N[C@H]2CC[C@H](O)CC2)ncc1Cl [Compound I-101]
101 to 500 | C=CC(=O)Nc1ccccc1Nc1nc(Nc2ccc(N3CCC[C@H]3C(N)=O)cc2C#N)ncc1Cl [Compound I-177, (S)-1-(4-((4-((2-acrylamidophenyl)amino)-5-chloropyrimidin-2-yl)amino)-3-cyanophenyl)pyrrolidine-2-carboxamide]
501 to 999 | C=CC(=O)Nc1cc(OC)ccc1Nc1nc(Nc2ccc(N3CCC[C@H]3CO)cc2C#N)ncc1Cl [Compound I-163, (S)—N-(2-((5-chloro-2-((2-cyano-4-(2-(hydroxymethyl)pyrrolidin-1-yl)phenyl)amino)pyrimidin-4-yl)amino)-5-methoxyphenyl)acrylamide]
501 to 999 | C=CC(=O)Nc1cc(OC)ccc1Nc1nc(Nc2ccc(N3CCN(C(C)=O)CC3)cc2OC)ncc1Cl [Compound I-152, N-(2-((2-((4-(4-acetylpiperazin-1-yl)-2-methoxyphenyl)amino)-5-chloropyrimidin-4-yl)amino)-5-methoxyphenyl)acrylamide]
501 to 999 | C=C(C)S(=O)(=O)Nc1ccccc1Nc1nc(Nc2cc(C(C)=O)ccc2C)ncc1C(F)(F)F [Compound I-97, N-(2-((2-((5-acetyl-2-methylphenyl)amino)-5-(trifluoromethyl)pyrimidin-4-yl)amino)phenyl)prop-1-ene-2-sulfonamide]
101 to 500 | C=CC(=O)Nc1ccccc1Nc1nc(N[C@@H]2CCC[C@H](C(=O)NOCCO)C2)ncc1C(F)(F)F (racemic) [Compound I-4, Rac-cis-3-((4-((2-acrylamidophenyl)amino)-5-(trifluoromethyl)pyrimidin-2-yl)amino)-N-(2-hydroxyethoxyl)cyclohexanecarboxamide]
101 to 500 | C=CC(=O)Nc1ccccc1Nc1nc(N[C@@H]2CCCN(C(C)=O)C2)ncc1Cl [Compound I-128, (R)—N-(2-((2-((1-acetylpiperidin-3-yl)amino)-5-chloropyrimidin-4-yl)amino)phenyl)acrylamide]
501 to 999 | C=CC(=O)Nc1cc(OC)ccc1Nc1nc(Nc2ccc(N(CC)C(C)=O)cc2C(F)(F)F)ncc1Cl [Compound I-176, N-(2-((5-chloro-2-((4-(N-ethylacetamido)-2-(trifluoromethyl)phenyl)amino)pyrimidin-4-yl)amino)-5-methoxyphenyl)acrylamide]
101 to 500 | C=CC(=O)Nc1ccccc1Nc1nc(N[C@@H]2CCC[C@H](C(=O)NOC)C2)ncc1Cl (racemic) [Compound I-203, Rac-cis-3-((4-((2-acrylamidophenyl)amino)-5-chloropyrimidin-2-yl)amino)-N-methoxycyclohexanecarboxamide]
101 to 500 | C=CC(=O)Nc1ccccc1Nc1nc(Nc2ccc(N3CCNCC3)cc2OC(F)F)ncc1Cl [Compound I-142, N-(2-((5-chloro-2-((2-(difluoromethoxy)-4-(piperazin-1-yl)phenyl)amino)pyrimidin-4-yl)amino)phenyl)acrylamide]
101 to 500 | C=CC(=O)Nc1ccccc1Nc1nc(N[C@@H]2CCC[C@H](C(=O)NOC)C2)ncc1C(F)(F)F (racemic) [Compound I-3, Rac-cis-3-((4-((2-acrylamidophenyl)amino)-5-(trifluoromethyl)pyrimidin-2-yl)amino)-N-methoxycyclohexanecarboxamide]
